Counter-ions that a name gives are not always drawn.
Assays:
Mus musculus [1] = experiment: Antinociceptive activity in sc dosed mouse by hot-plate assay; type: functional
Mus musculus [2] = experiment: Antinociceptive activity in sc dosed mouse by Nilsen assay; type: functional

Row | SMILES | ED50 (Mus musculus [1]) | ED50 (Mus musculus [2])
1 | CN1CC[C@]23CCCC[C@H]2[C@H]1Cc1ccc(O)cc13 | 0.5 µmol/kg | 0.5 µmol/kg
2 | CN1CC[C@]23c4c5ccc(O)c4O[C@H]2[C@@H](O)C=C[C@H]3[C@H]1C5 | 3.3 µmol/kg | 4.1 µmol/kg
3 | O[C@H]1CC[C@H]2[C@H]3Cc4cccc5c4[C@@]2(CCN3)[C@H]1O5 | 45.3 µmol/kg | 67.8 µmol/kg
4 | CN1CC[C@]23c4c5cccc4O[C@H]2[C@@H](O)CC[C@H]3[C@H]1C5 | 4.2 µmol/kg | 8.1 µmol/kg
5 | CN1CC[C@]23c4c5cccc4O[C@H]2C(=O)CC[C@H]3[C@H]1C5 | 1.8 µmol/kg | 2.8 µmol/kg
6 | C=CCN1CC[C@]23c4c5cccc4O[C@H]2[C@@H](O)CC[C@H]3[C@H]1C5 | 44 µmol/kg | 59.9 µmol/kg
7 | c1cc2c3c(c1)O[C@H]1CCC[C@H]4[C@@H](C2)NCC[C@]314 | 1.3 µmol/kg | 4.4 µmol/kg
8 | CN1CC[C@]23c4c5ccc(O)c4O[C@H]2CCC[C@H]3[C@H]1C5 | 0.14 µmol/kg | –
9 | CN1CC[C@]23c4c5ccc(O)c4O[C@H]2[C@@H](O)CC[C@H]3[C@H]1C5 | 2.5 µmol/kg | –
10 | CN1CC[C@]23c4c5cccc4O[C@H]2[C@@H](O)C=C[C@H]3[C@H]1C5 | 8.6 µmol/kg | 30.9 µmol/kg
11 | CN1CCC23CCCCC2C1Cc1ccccc13 (racemic) | 16.5 µmol/kg | –
12 | CN1CC[C@]23c4c5ccc(O)c4O[C@H]2C(=O)CC[C@H]3[C@H]1C5 [HYDROMORPHONE HYDROCHLORIDE] | 0.4 µmol/kg | 0.7 µmol/kg
13 | C=CCN1CC[C@]23c4c5ccc(O)c4O[C@H]2[C@@H](O)C=C[C@H]3[C@H]1C5 [NALORPHINE HYDROCHLORIDE] | 105 µmol/kg | 13.8 µmol/kg

Reference: ChEMBL document CHEMBL3228035, “Deoxymorphines: role of the phenolic hydroxyl in antinociception and opiate receptor interactions” (J Med Chem, 1979)
